Values joined by “and” are separate entries in the source; they are usually repeats but may differ in a detail not shown here. Identical values can stand only once. Toxic doses and inconclusive results are not listed.
Assays:
[1] = tested on: BDF1 mice, L1210 leukemia sc, survival T/C; assay: NCI In Vivo Anticancer Drug Screen. Data for tumor model L1210 Leukemia (subcutaneous) in B6D2F1 (BDF1) mice; conditions: endpoint: median survival time, higher = longer survival
Method in brief: (§1)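 Antitumor activity is assessed in mice with transplanted tumors by comparing the treated group (T) with the vehicle control group (C).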

[2] = tested on: BDF1 mice, L1210 leukemia sc; assay: as above; conditions: endpoint: mean tumor weight, vehicle: water, higher = larger tumour
Method in brief: as §1

For `O=C(NO)c1ccncc1`, the T/C ([1]; dose: 67.0 mg/kg/injection, schedule: Q#B X027 (ip), vehicle: water) was 108 % of control, the T/C ([1]; dose: 133.0 mg/kg/injection, schedule: Q#B X027 (ip), vehicle: water) was 108 % of control and the T/C ([1]; dose: 200.0 mg/kg/injection, schedule: Q01DX009 (ip), vehicle: water) was 108 % of control. The T/C ([1]; dose: 200.0 mg/kg/injection, schedule: Q#B X027 (ip), vehicle: water) was 116 % of control, the T/C ([1]; dose: 267.0 mg/kg/injection, schedule: Q#B X027 (ip), vehicle: water) was 108 % of control and the T/C ([2]; dose: 67.0 mg/kg/injection, schedule: Q#B X027 (ip)) was 68 % of control. For the same compound, the T/C ([2]; dose: 133.0 mg/kg/injection, schedule: Q#B X027 (ip)) was 58 % of control, the T/C ([2]; dose: 200.0 mg/kg/injection, schedule: Q01DX009 (ip)) was 60 % of control and the T/C ([2]; dose: 200.0 mg/kg/injection, schedule: Q#B X027 (ip)) was 57 % of control. The T/C ([2]; dose: 267.0 mg/kg/injection, schedule: Q#B X027 (ip)) was 41 % of control.
In the case of `CN(Cc1cnc2nc(N)nc(N)c2n1)c1c(Cl)cc(C(=O)NC(CCC(=O)O)C(=O)O)cc1Cl` (stereo unspecified), the T/C ([1]; dose: 14.0 mg/kg/injection, schedule: Q01DX Z (sc), vehicle: sodium bicarbonate) was 245 % of control, the T/C ([1]; dose: 23.0 mg/kg/injection, schedule: Q01DX Z (sc), vehicle: sodium bicarbonate) was 259 % of control and the T/C ([1]; dose: 39.0 mg/kg/injection, schedule: Q01DX Z (sc), vehicle: sodium bicarbonate) was 427 % of control. The T/C ([1]; dose: 100.0 mg/kg/injection, schedule: Q01DX Z (sc), vehicle: other) was 154 % of control.
For `COc1cccc2c1C(=O)c1c(O)c3c(c(O)c1C2=O)CC(O)(C(C)=O)CC3OC1CC(N)C(O)C(C)O1` (stereo unspecified), the T/C ([1]; dose: 11.7 mg/kg/injection, schedule: Q04DX003 (ip), vehicle: saline) was 90 % of control, the T/C ([1]; dose: 23.4 mg/kg/injection, schedule: Q04DX003 (ip), vehicle: saline) was 94 % of control and the T/C ([1]; dose: 46.8 mg/kg/injection, schedule: Q04DX003 (ip), vehicle: saline) was 91 % of control. For the same compound, the T/C ([1]; dose: 93.6 mg/kg/injection, schedule: Q04DX003 (ip), vehicle: saline) was 91 % of control and the T/C ([1]; dose: 187.2 mg/kg/injection, schedule: Q04DX003 (ip), vehicle: saline) was 90 % of control.
For `O=c1[nH]c(=O)n(C2CC(O)C(CO)O2)cc1Br` (stereo unspecified), the T/C ([1]; dose: 65.0 mg/kg/injection, schedule: Q01DX Z (sc), vehicle: saline) was 111 % of control, the T/C ([1]; dose: 108.0 mg/kg/injection, schedule: Q01DX Z (sc), vehicle: saline) was 111 % of control and the T/C ([1]; dose: 180.0 mg/kg/injection, schedule: Q01DX Z (sc), vehicle: saline) was 111 % of control. For the same compound, the T/C ([1]; dose: 300.0 mg/kg/injection, schedule: Q01DX Z (sc), vehicle: saline) was 111 % of control, the T/C ([1]; dose: 500.0 mg/kg/injection, schedule: Q01DX Z (sc), vehicle: saline) was 122 % of control and the T/C ([1]; dose: 833.0 mg/kg/injection, schedule: Q01DX Z (sc), vehicle: saline) was 122 % of control.
`CN(O)C(N)=O` was tested, and the T/C ([1]; dose: 360.0 mg/kg/injection, schedule: Q01DX Z (sc), vehicle: saline) was 150 % of control.
With `OC(c1ccccc1)c1nc2ccccc2[nH]1` (stereo unspecified) the T/C ([1]; dose: 108.0 mg/kg/injection, schedule: Q01DX Z (sc), vehicle: methylcellulose (MC)) was 100 % of control, the T/C ([1]; dose: 180.0 mg/kg/injection, schedule: Q01DX Z (sc), vehicle: methylcellulose (MC)) was 100 % of control and the T/C ([1]; dose: 300.0 mg/kg/injection, schedule: Q01DX Z (sc), vehicle: methylcellulose (MC)) was 100 % of control. For the same compound, the T/C ([1]; dose: 500.0 mg/kg/injection, schedule: Q01DX Z (sc), vehicle: methylcellulose (MC)) was 100 % of control and the T/C ([1]; dose: 840.0 mg/kg/injection, schedule: Q01DX Z (sc), vehicle: methylcellulose (MC)) was 100 % of control.
For `COC1=C(N)C(=O)c2nc(-c3nc(C(=O)O)c(C)c(-c4ccc(OC)c(OC)c4O)c3N)ccc2C1=O`, the T/C ([1]; dose: 0.02 mg/kg/injection, schedule: Q01DX009 (ip), vehicle: water) was 92 % of control, the T/C ([1]; dose: 0.02 mg/kg/injection, schedule: Q01DX009 (sc), vehicle: water) was 93 % of control and the T/C ([1]; dose: 0.05 mg/kg/injection, schedule: Q01DX009 (ip), vehicle: water) was 96 % of control. For the same compound, the T/C ([1]; dose: 0.05 mg/kg/injection, schedule: Q01DX009 (sc), vehicle: water) was 98 % of control, the T/C ([1]; dose: 0.1 mg/kg/injection, schedule: Q01DX009 (ip), vehicle: water) was 96 % of control and the T/C ([1]; dose: 0.1 mg/kg/injection, schedule: Q01DX009 (sc), vehicle: water) was 96 % of control. The T/C ([1]; dose: 0.2 mg/kg/injection, schedule: Q01DX009 (ip), vehicle: water) was 93 % of control, the T/C ([1]; dose: 0.2 mg/kg/injection, schedule: Q01DX009 (sc), vehicle: water) was 94 % of control and the T/C ([1]; dose: 0.25 mg/kg/injection, schedule: Q01DX009 (sc), vehicle: water) was 104 % of control. For the same compound, the T/C ([1]; dose: 0.4 mg/kg/injection, schedule: Q01DX009 (ip), vehicle: water) was 102 % of control, the T/C ([1]; dose: 0.4 mg/kg/injection, schedule: Q01DX009 (sc), vehicle: water) was 98 % of control and the T/C ([1]; dose: 0.5 mg/kg/injection, schedule: Q01DX009 (sc), vehicle: water) was 94 % of control and 106 % of control. The T/C ([1]; dose: 1.0 mg/kg/injection, schedule: Q01DX009 (sc), vehicle: water) was 96 % of control and 101 % of control, the T/C ([1]; dose: 2.0 mg/kg/injection, schedule: Q01DX009 (sc), vehicle: water) was 94 % of control and 96 % of control and the T/C ([1]; dose: 4.0 mg/kg/injection, schedule: Q01DX009 (sc), vehicle: water) was 94 % of control.
